In patent US20250129028A1, “COMPOUNDS AND METHODS FOR YAP/TEAD MODULATION AND INDICATIONS THEREFOR” (Opna Bio SA, priority 2022, published 2025) one finds IC50 data, which are given here for 14 compounds.

SMILES strings stand for the structures.

The assay concerns TEAD-dependent transcription. As to the kind of experiment: TEAD-dependent transcription cell-based reporter assay (MSTO-211H+12XGTIIC luciferase). Further details: species or system human. As to conditions: Homo sapiens; MSTO-211H+12XGTIIC cell line, luciferase signal normalized to cell viability, 24 hours compound incubation; read-out: MSTO-211H GMean IC50 (uM) Cell Assay Reporter Cell Variant: TEAD. An excerpt:
Determine Inhibitor Activity Against TEAD-Dependent Transcription in a Cell-Based Reporter Assay
The human mesothelioma cell line MSTO-211H was stably transfected with a pGL4.21 plasmid containing a synthetic promoter with 12 copies of the GTIIC TEAD response element that drives the expression of a luciferase reporter gene^1 using Lipofectamine transfection reagent (Thermo Fisher). Transfected cells were selected using puromycin and single cell clones expressing this construct (referred to as MSTO-211H+12XGTIIC) were generated by limiting dilution. MSTO-211H cells was characterized by genetic alterations in key components of the Hippo pathway^2, resulting in up-regulation of YAP/TEAD-mediated transcription. […] To evaluate TEAD inhibitors, the MSTO-211H+12XGTIIC cell line was seeded in a 96-well plate in 50 μL of culture media at 1×10^4 cells per well and incubated at 37° C. overnight. Serial dilutions of compounds (in total volume of 50 μL of culture media) were added to the cells and incubated at 37° C. for 24 hours. Each plate included cells treated with DMSO as high controls and cells treated with 20 μM of the reference compound K-975 (a known TEAD inhibitor)^3 as low controls. Cell viability was assayed by the addition of 25 μL of CellTiter-Fluor reagent (Promega) followed by a 30-minute incubation at 37° C. and quantification of the fluorescence signal (Ex400/Em505). Subsequently, luciferase expression was assayed by the addition of 25 μL of ONE-Glo reagent (Promega) followed by a 10-minute incubation at room temperature and quantification of the luminescence signal. The luminescence signal was normalized to the fluorescence signal to correct for any loss in cell viability over the 24-hour compound incubation period. The percentage of inhibition of normalized luminescence signal, indicative of compound-mediated inhibition of TEAD-dependent transcription, at individual compound concentrations relative to high and low controls was calculated. The data were analyzed by using nonlinear regression to generate IC50 values for individual compounds.
For `CCC1c2cc(Oc3ccc(C(F)(F)F)cc3)ccc2CCN1C(=O)CCS(C)(=O)=O` (centres unmarked) [P-0209, 1-(1-ethyl-7-(4-(trifluoro-methyl)phenoxy)-3,4-dihydroisoquinolin-2(1H)-yl)-3-(methylsul-fonyl)propan-1-one], the IC50 fell in the range of 0.001 to 10 µM. On to `C=CS(=O)(=O)N1CCC(C(=O)N2CCc3ccc(Oc4ccc(C(F)(F)F)c(F)c4)cc3C2)C1` (centres unmarked) [P-0158, (7-(3-fluoro-4-(trifluoro-methyl)phenoxy)-3,4-dihydroisoquinolin-2(1H)-yl)(1-(vinylsul-fonyl)pyrrolidin-3-yl)-methanone], for which the IC50 lay within 0.001 to 10 µM.

Consider `O=C(Cc1nnn[nH]1)N1CCc2ccc(Oc3ccc(C(F)(F)F)c(F)c3)cc2C1` [P-0148, 1-(7-(3-fluoro-4-(trifluoromethyl)phen-oxy)-3,4-dihydroisoquin-olin-2(1H)-yl)-2-(1H-tetrazol-5-yl)ethan-1-one], for which the IC50 was 0.001 to 10 µM.

In the case of `NC1=NC(=O)C(CC(=O)N2CCc3ccc(Oc4ccc(C(F)(F)F)cc4)cc3C2)S1` (centres unmarked) [P-0070, 2-amino-5-(2-oxo-2-(7-(4-(trifluoromethyl)-phenoxy)-3,4-dihydroiso-quinolin-2(1H)-yl)ethyl)-thiazol-4(5H)-one], the IC50 was 0.001 to 10 µM.

Regarding `O=C(c1cc(C(F)F)[nH]n1)N1CCc2ccc(Oc3ccc(C(F)(F)F)cc3)cc2C1` [P-0103, (5-(difluoromethyl)-1H-pyrazol-3-yl)(7-(4-(trifluoromethyl)phen-oxy)-3,4-dihydroisoquin-olin-2(1H)-yl)methanone], the IC50 was 0.001 to 10 µM. Take `O=C(Cc1n[nH]c(=O)[nH]1)N1CCc2ccc(Oc3ccc(C(F)(F)F)c(F)c3)cc2C1` [P-0160, 5-(2-(7-(3-fluoro-4-(trifluoromethyl)phen-oxy)-3,4-dihydroisoquin-olin-2(1H)-yl)-2-oxoeth-yl)-2,4-dihydro-3H-1,2,4-triazol-3-one]: the IC50 was 0.001 to 10 µM. For `CC(C)S(=O)(=O)N1CCc2c(cccc2Oc2ccc(C(F)(F)F)cc2)C1` [P-0235, 2-(isopropylsulfonyl)-5-(4-(trifluoromethyl)phen-oxy)-1,2,3,4-tetrahydro-isoquinoline], the IC50 lay within 0.001 to 10 µM.

As for `NS(=O)(=O)CC(=O)N1CCc2ccc(Oc3ccc(C(F)(F)F)cc3)cc2C1` [P-0125, 2-oxo-2-(7-(4-(trifluoro-methyl)phenoxy)-3,4-dihydroisoquinolin-2(1H)-yl)ethane-1-sul-fonamide], the IC50 is 0.001 to 10 µM.

`CCNC(=O)N1CCc2ccc(Oc3ccc(C(F)(F)F)cc3)cc2C1` [P-0003, N-ethyl-7-(4-(trifluoro-methyl)phenoxy)-3,4-dihydroisoquinoline-2(1H)-carboxamide]: the IC50 is 0.001 to 10 µM. For `Nc1nc(C(=O)N2CCc3ccc(Oc4ccc(C(F)(F)F)cc4)cc3C2)cs1` [P-0073, (2-aminothiazol-4-yl)(7-(4-(trifluoromethyl)phen-oxy)-3,4-dihydroisoquin-olin-2(1H)-yl)methanone], the IC50 is 0.001 to 10 µM. On to `O=C(Cc1cocn1)N1CCc2c(cccc2Oc2ccc(C(F)(F)F)cc2)C1` [P-0246, 2-(oxazol-4-yl)-1-(5-(4-(trifluoromethyl)phen-oxy)-3,4-dihydroisoquin-olin-2(1H)-yl)ethan-1-one], for which the IC50 fell in the range of 0.001 to 10 µM. Turning to `Cc1nnc(CCC(=O)N2CCc3ccc(Oc4ccc(C(F)(F)F)cc4)cc3C2)o1` [P-0063, 3-(5-methyl-1,3,4-oxadi-azol-2-yl)-1-(7-(4-(trifluoromethyl)phen-oxy)-3,4-dihydroisoquin-olin-2(1H)-yl)propan-1-one], the IC50 lay in the range of 0.001 to 10 µM.

Consider `O=C(CCc1ncc[nH]1)N1CCc2c(cccc2Oc2ccc(C(F)(F)F)cc2)C1` [P-0249, 3-(1H-imidazol-2-yl)-1-(5-(4-(trifluoromethyl)-phenoxy)-3,4-dihydro-isoquinolin-2(1H)-yl)pro-pan-1-one], for which the IC50 lay within 0.001 to 10 µM. As for `C=CS(=O)(=O)N1CC(C(=O)N2CCc3ccc(Oc4ccc(C(F)(F)F)c(F)c4)cc3C2)C1` [P-0157, (7-(3-fluoro-4-(trifluoromethyl)phenoxy)-3,4-dihydroisoquinolin-2(1H)-yl)(1-(vinylsulfonyl)azetidin-3-yl)methanone], the figure is 0.001 to 10 µM.

By IC50 is commonly meant the concentration at which inhibition is half-maximal.
